Measured values as given in patent US20110200646A1, “The TRPVL Antagonists SB-795498 For Treating Rhinitis” (priority 2008, published 2011).
pIC50: −log10 of the molar value.

Key:
[1] = test system: Capsaicin Induced Currents recorded from Nasally Innervated Guinea-Pig Trigeminal Ganglia Cell Bodies; experiment: Whole cell patch clamp of capsaicin induced currents in nasally innervated trigeminal ganglia neurons; format: cell-based
Procedure: Nasal afferent neurons were retrogradely labelled by using DiIC13(3) solution (2% in DMSO, sonicated to ensure solubility) (Dil, Invitrogen), A guinea pig was dosed with atropine (1 mg/kg i.p.) 5 minutes prior to anaesthesia with isoflurane. Once unconscious 25 μl of the Dil solution was placed into the right nostril and the guinea pig allowed to recover. After 24 hours the procedure was repeated and the left nostril dosed. After a period of 2 weeks the guinea pig was killed via CO2 asphyxiation and the trigeminal ganglia rapidly dissected. An area of approximately 3 mm×2 mm which contained neurons that innervated the nose was isolated (J. Allergy Clin. Immunol. 2005, 116, 1282), cut into smaller pieces and incubated in enzyme buffer (8 mg papain in 4 ml L-15) at 37° C. for 40 min. The papain solution was removed and the tissue washed three times with 5-5 media (5-5 Media was prepared by the addition of 5 ml Fetal Bovine Serum, 5 ml Horse Serum, 1 ml 5000 Units Penicillin/5000 […] Streptomycin, 1 ml 30% Glucose and 0.33 ml of 1× stock Insulin Transferrin Sodium Selenite to 90 ml Minimum Essential Media with Earle's salts and Glutamax). The neurons were dissociated by trituration with 3 fire-polished glass Pastuer pipettes of decreasing tip size, then the resulting cell suspension filtered and centrifuged (1000 g for 4 min). The pellet was resuspended in 300 μl of 5-5 media. 25 μl of the cell suspension was plated onto poly-D-lysine and laminin coated 12 mm glass coverslips and placed in an incubator at 37° C. After 2 hours the coverslips were flooded with 5-5 media and used within 48 hours. Conventional whole cell patch clamp techniques were employed under voltage clamp (holding potential of −70 mV) at room temperature. Drug solutions were applied to the cell using a Rapid Solution Changer (Biologic). Cell bodies that had innervated the nose were identified using a fluorescence based microscope. All data was analysed using pClamp version 10.2.0.9 and 10.2.0.10 (Molecular Devices Inc).

[2] = test system: capsaicin provoked nasal secretion; experiment: Contralateral nasal fluid secretion (MRI) after ipsilateral capsaicin challenge in sensitised guinea pig; format: in vivo; settings: for reduction of contralateral fluid secretion: oral, non micronised, 1 hour prior to 0.3 mM capsaicin challenge; for inhibition of capsaicin provoked nasal secretion: topical (intranasal) non-micronised
Procedure: (§1) Dunkin Hartley guinea pigs (ca. 180-200 g) were intranasally sensitised into both nostrils twice daily for 5 days with 25 μl of 10 μg ovalbimun plus 10 mg aluminium hydroxide in saline. This was followed up with one week of intranasal challenge in both nostrils with ovalbumin 25 μl of a 5 mg/ml saline solution per nostril (weekends eliminated).
(§2) Six animals per group were studied and a repeat of each study conducted to provide up to 12 animals per group in the final data set. Animals were pretreated with Compound 1 (intranasal administration 25 μl per nostril of a suspension or oral administration 1 ml of a solution in 50% deionised water 5% DMSO and 45% PEG 200). At a set time point the animals were anaethetised with urethane (1.5 g/kg) i.p. and scanned with magnetic resonance imaging (MRI) to obtain baseline nasal images. Each animal was then removed from the scanner and received an ipsilateral nasal challenge of capsaicin (50 μl of a solution 0.3 mM 5% DMSO, 5% Tween 80, 90% Phosphate buffered saline)) or 10% hypertonic saline solution (50 μl) (administered by pipette. The animal was rescanned at 10 minutes post-challenge to measure the contralateral fluid volumes.
The fluid measurement was made using standard T2 weighted spin echo MRI sequences on a 2 Tesla Bruker Medspec MRI scanner. The raw data was collected using Paravision 3.0.2 (Bruker) software. Fluid measurements were made using grey level thresholding technique using Mayo Clinic software Analyze 7.0. Statistical analysis was carried out using the Statistica 6.0 software by StatSoft

[3] = test system: hypertonic saline provoked nasal secretion; experiment: Contralateral nasal fluid secretion (MRI) after ipsilateral hypertonic saline challenge in sensitised guinea pig; format: in vivo; settings: topical micronised 1 mg/ml, 1 hour pre-treatment, 10% hypertonic saline challenge; p<0.005
Procedure: as §1, §2
(§3) The fluid measurement was made using standard T2 weighted spin echo MRI sequences on a 2 Tesla Bruker Medspec MRI scanner. The raw data was collected using Paravision 3.0.2 (Bruker) software. […]

[4] = test system: capsaicin provoked nasal tissue response; experiment: Contralateral nasal tissue volume (MRI) after ipsilateral capsaicin challenge in guinea pig; format: in vivo; settings: 1 hour pre-treatment, 0.3 mM capsaicin challenge
Procedure: as §1, §2, §3

Structure (SMILES) | cells tested producing an inward current ([1]; 1 μM capsaicin, small diameter (<30 μm) fluorescent neurons, voltage clamped at −70 mV) [%] | reduction of contralateral fluid secretion ([2]; 10 mg/kg, p<0.05) | reduction of contralateral fluid secretion ([2]; 30 mg/kg, p<0.001) | inhibition of capsaicin provoked nasal secretion ([2]; 10 mg/ml, 1 hour pre-treatment, p<0.005) [%] | inhibition of capsaicin provoked nasal secretion ([2]; 30 mg/ml, 1 hour pre-treatment) | inhibition of the capsaicin response (nasal secretion) ([2]; topical micronised, 1 hour pre-treatment, all the doses evaluated) | inhibition of contralateral response (nasal secretion) ([2]; topical micronised, capsaicin challenge 12 hours after pre-treatment) [%] | inhibition of contralateral response (nasal secretion) ([2]; topical micronised, capsaicin challenge 24 hours after pre-treatment) [%] | inhibition of the hypertonic saline response (nasal secretion) [3] [%] | pIC50 ([1]; Cavia porcellus, Neuron, 1 μM capsaicin, voltage clamp −70 mV, room temperature, Hill equation fit, n>4, read-out: IC50, inhibition of capsaicin response (inward current)) | inhibition of the capsaicin response (current), concentration dependence ([1]; voltage clamp −70 mV) | reversibility of inhibition on switching from capsaicin and Compound 1 to capsaicin only ([1]; voltage clamp −70 mV) | reduction of contralateral tissue swelling compared to vehicle control ([4]; topical micronised 3 mg/ml, p<0.05) [%] | reduction of contralateral tissue swelling compared to vehicle control ([4]; topical micronised 30 mg/ml, p<0.01) [%]
COc1cc(CNC(=O)CCCC/C=C/C(C)C)ccc1O [capsaicin, reference compound] | 56 |  |  |  |  |  |  |  |  |  |  |  |  | 
O=C(Nc1ccccc1Br)N[C@@H]1CCN(c2ccc(C(F)(F)F)cn2)C1 [Compound 1, N-(2-bromophenyl)-N′-[((R)-1-(5-trifluoromethyl-2-pyridyl)pyrrolidin-3-yl)]urea] |  | ca. 50% | ca. 70% | > 50 | ca. 75% | significant inhibition | 62 | 52 | 68 | 7.23 | concentration related inhibition | rapid reversal | 56 | 83
